These results are taken from patent US9017737B2, “Use of cannabinoids in combination with an anti-psychotic medicament” (priority 2008, dated 2015).

One test has as its system rat isolated aortae. Description: In vitro vascular studies by wire myography. The conditions noted are these: for Time-dependent relaxation of the rat aorta: 2 h (120 min), pre-contracted aortae.
Test [1] relates to rat/Wistar. Description: Aripiprazole-induced catalepsy. It is filed as in vivo. Particulars: ip, 1 hour after aripiprazole po. As for the experimental part:
(§1) Animals were subjected to a protocol as illustrated in FIG. 5.
(§2) Rats were made to fast from 6 PM on the day before the experiment until sacrifice. Rats were weighed and orally (PO) administered aripiprazole. […] For measurement of catalepsy, the observations were performed three times at each observation time point. The animals were forced to hang with their right forepaw on the upper edge of a steel can (diameter: 6 cm, height: 10 cm). When the animals remained in the unnatural vertical position for 30 seconds or longer, they were judged to be positive responders for catalepsy.

For test [2], the system named is rat/Wistar. Description: Aripiprazole-induced ptosis. Type of test: in vivo. Particulars: ip, 1 hour after aripiprazole po. On the procedure: as §1, §2
The measurement of ptosis was performed as follows. Each animal was individually taken from the home cage and put on the experimenter's hand to observe the eyes. The ptosis score was determined for both eyes as described below, and the scores for the two eyes were added to obtain the total score (maximum score, 8) • 0: Normal • 1: Mild ptosis (upper eyelid covered ¼ of the eye) • 2: Moderate ptosis (upper eyelid covered ½ of the eye) • 3: Severe ptosis (upper eyelid covered ¾ of the eye) • 4: Complete ptosis (upper eyelid covered the entire eye)

The next test addresses T1, PPARγ (Homo sapiens, UniProt P37231).
T1 construct: expressed in transfected cells
T1 sequence (P37231 1-505): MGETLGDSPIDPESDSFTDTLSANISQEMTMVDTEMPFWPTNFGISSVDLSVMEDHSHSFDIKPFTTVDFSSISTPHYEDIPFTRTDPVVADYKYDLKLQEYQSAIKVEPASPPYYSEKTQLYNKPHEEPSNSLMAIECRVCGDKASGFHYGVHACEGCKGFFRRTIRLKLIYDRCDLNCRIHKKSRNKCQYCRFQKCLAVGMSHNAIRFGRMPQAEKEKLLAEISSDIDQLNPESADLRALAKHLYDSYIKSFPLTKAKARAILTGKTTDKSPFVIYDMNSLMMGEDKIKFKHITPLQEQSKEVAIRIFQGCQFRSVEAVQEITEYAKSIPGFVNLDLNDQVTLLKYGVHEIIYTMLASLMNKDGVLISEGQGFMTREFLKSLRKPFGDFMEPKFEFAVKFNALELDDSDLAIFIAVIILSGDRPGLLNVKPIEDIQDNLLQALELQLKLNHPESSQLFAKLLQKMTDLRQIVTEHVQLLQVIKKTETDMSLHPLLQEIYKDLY
T1 sequence (P19793 1-462 partner): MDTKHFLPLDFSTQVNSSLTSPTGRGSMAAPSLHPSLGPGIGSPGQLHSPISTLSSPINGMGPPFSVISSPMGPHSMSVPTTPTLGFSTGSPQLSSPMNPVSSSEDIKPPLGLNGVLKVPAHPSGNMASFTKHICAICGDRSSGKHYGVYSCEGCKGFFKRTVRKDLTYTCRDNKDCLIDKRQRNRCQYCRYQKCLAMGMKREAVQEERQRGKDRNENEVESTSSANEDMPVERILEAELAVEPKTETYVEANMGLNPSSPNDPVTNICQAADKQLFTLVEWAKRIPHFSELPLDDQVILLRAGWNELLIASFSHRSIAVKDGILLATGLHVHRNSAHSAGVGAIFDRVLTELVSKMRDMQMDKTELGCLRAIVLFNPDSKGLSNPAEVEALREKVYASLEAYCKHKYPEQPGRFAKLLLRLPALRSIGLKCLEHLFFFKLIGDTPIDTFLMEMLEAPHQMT
As to the kind of experiment: Transcriptional transactivation (luciferase reporter gene) assay. Type of test: cell-based. The conditions noted are these: any concentration tested; in words. On the procedure: In vitro vascular studies were carried out in rat isolated aortae by wire myography. PPARγ activation was investigated using reporter gene assays, a PPARγ competition-binding assay and an adipogenesis assay.

The next test has as its system 3T3L1 cells. As to the kind of experiment: Induction of adipocyte differentiation (Oil Red O staining). Type of test: cell-based. Particulars: treated for 8 days.
For test [3], the system named is small resistance mesenteric vessels and aorta. As to the kind of experiment: Chronic treatment of rats with CBD: vascular responses in isolated arteries. It is filed as in vivo, rat. Particulars: animals treated for 2 weeks.

Molecules are shown by their SMILES.

For the molecule `CCCc1cc(O)c2c(c1)OC(C)(C)[C@@H]1CCC(C)=C[C@@H]21` [THCV, tetrahydrocannabivarin], in the test with rat isolated aortae (10 μM), the “Time-dependent relaxation of the rat aorta” value was 28.7±4.6 % relaxation. Also, in the test on rat isolated aortae (10 μM, in words), the “Effect on tone in pre-contracted aortae” value is on record as “no effect on tone until after 105 minutes”. Also, the “Aripiprazole-induced catalepsy in rats” value in the test on rat/Wistar [1] (60 mg/kg) was “significantly decreased”. Also, the “Aripiprazole-induced ptosis in rats” value with rat/Wistar [2] (60 mg/kg) is reported as “significantly decreased”. The PPARγ transcriptional activity result on PPARγ is “no effect”.
With `C=C(C)[C@@H]1CCC(C)=C[C@H]1c1c(O)cc(CCCCC)cc1O` [CBD, cannabidiol], in the test with rat isolated aortae (10 μM), the “Time-dependent relaxation of the rat aorta” value is recorded as 69.7±4.0 % relaxation. Further, in the test on rat isolated aortae (10 μM, after 2 h), the “Residual relaxation (vasorelaxant effect minus the vasorelaxant effect of vehicle and time)” value amounted to 50.1±3.3 % relaxation. The “Basal tension over time” value with rat isolated aortae (2 h) was -0.03 ± 0.01 g. In the test with rat isolated aortae (AM251 1 μM), the “Time-dependent vascular responses with the CB1 receptor antagonist AM251” value is reported as “did not significantly affect”. Moreover, in the test with rat isolated aortae (GW9662 1 μM, after 1 h of incubation), the “Residual vasorelaxant effect in the presence of the PPARγ receptor antagonist GW9662” value was “significantly reduced”. Moreover, in the test on rat isolated aortae (L-NAME 300 μM, vs control conditions), the “Residual vasorelaxant effect in the presence of the nitric oxide synthase inhibitor L-NAME” value is recorded as “not different”. In addition, the “Vascular response over time after pre-treating arteries with PTX or capsaicin” value in the test with rat isolated aortae (PTX 200 ng ml−1, 2 h or capsaicin 10 μM, 1 h) is reported as “no effect”. In addition, in the test with rat isolated aortae (SR144528 1 μM, between 45 min to 90 min), the “Residual vasorelaxant effects with the CB2 receptor antagonist SR144528” value is reported as “significantly inhibited”. Further, the “Potency and maximal contractile response to the re-introduction of calcium” value in the test on rat isolated aortae (calcium free, high potassium Krebs-Hensleit solution, 1 μM to 30 μM, concentration-dependent) is “significantly reduced”. Also, in the test on rat isolated aortae (compared with control), the “Vasorelaxant effect in arteries contracted with a high potassium buffer” value was “no difference” and the “Vasorelaxant effect in vessels where tone was induced with U46619 in calcium free buffer” value is given as “significantly blunted”. Also, the “Vasorelaxant effect in endothelium-denuded and control aortae” value with rat isolated aortae (endothelium-denuded) is listed as “similar”. Moreover, the “Differentiation of 3T3 L1 cells to adipocytes (fat droplet accumulation, Oil Red O)” value in the test with 3T3L1 cells is reported as “signs of fat droplet accumulation were apparent at all concentrations tested”. Besides, the “Aripiprazole-induced catalepsy in rats” value in the test on rat/Wistar [1] (120 mg/kg) is “significantly decreased”. In test [3], the “Maximal response to methoxamine in the aorta” value came to 1.63±0.21 g increase tension; the “Potency of acetylcholine (pEC50) in the aorta” value turned out to be 5.37±0.40; the “Potency of methoxamine (pEC50), small resistance mesenteric vessels” value came to 5.79±0.10. The “Aripiprazole-induced ptosis in rats” value in the test on rat/Wistar [2] (120 mg/kg) was “significantly decreased”.
As to `COc1ccc(CCN(C)CCCC(C#N)(c2ccc(OC)c(OC)c2)C(C)C)cc1OC` (stereo not drawn) [verapamil, reference compound], in the test on rat isolated aortae (more rapid onset than CBD), the “Vasorelaxation of pre-constricted vessels” value was “significant vasorelaxation”.
